Target: T1, purified Hemoglobin S (HbS) (Homo sapiens, UniProt P68871+P69905, E7V)
T1 construct: HbS was purified by a modified procedure; from tissue; host or cells: blood of homozygous sickle cell patients (CHORI); for the polymerization assay purified by the CRO VIRUSYS
Assay: Modulation of hemoglobin oxygen affinity: oxygen equilibrium curves (HEMOX) in purified HbS
Type: biochemical, human (homozygous sickle cell patients)
Settings: 25 μM purified HbS, 45 min at 37° C.
Description: Oxygen equilibrium curves (OEC) in purified Hemoglobin S (HbS) were measured by the change in p50, the partial pressure of oxygen at which the heme binding sites in the HbS sample are 50% saturated with oxygen. HbS was purified by a modified procedure (Antonini and Brunori, 1971; Heomoglobin and Myoglobin in their Reactions with Ligands; North Holland Publishing Company; Amsterdam, London) from blood obtained from homozygous sickle cell patients though the Hemoglobinopathy Center at Children's Hospital Oakland Research Institute (CHORI) with Institutional Review Board approval. Oxygen equilibrium curves were carried out with a HEMOX analyzer, (TCS Scientific, New Hope, Pa.). Five hundred μL of 250 μM purified HbS were diluted into 4.5 mL of HEMOX buffer (30 mM TES, 130 mM NaCl, 5 mM KCl, pH=7.4) resulting in a final hemoglobin concentration of 25 μM. The compounds were added at the final desired concentrations. The mixture was incubated for 45 min at 37° C. and then transferred to the Hemox sample chamber. The samples were saturated with oxygen by flushing with compressed air for 10 minutes. The samples were then flushed with pure nitrogen and the absorbance of deoxy-Hb was recorded as a function of the solution pO2. The oxygen equilibrium data was then fit to the Hill Model to obtain values for p50. The deoxygenation curves for both HbS alone (control) and HbS in the presence of compound were collected with the TCS software. The p50 for purified Hbs was typically 13.8±1.6. Delta p50 values were obtained from the p50 value for control minus the p50 value for HbS treated with compound divided by the p50 value for the control.
The compounds of Table 1 that were where tested in the assay above were all found to have positive delta p50 values. Delta p50% is calculated from [[p50(HbS) −p50(HbS treated with compound)]/p50(HbS)]×100. Table 2 below lists the delta p50% values where + indicates a delta p50% of between 0 and 29, ++ indicates a delta p50% of between 30 and 50, and +++ indicates a delta p50% of 50 or greater. Unless noted otherwise, the compounds in Table 2 were tested at 30 μM.

Structure (SMILES) | delta p50% (compound at 100 μM) | delta p50% (compound at 30 μM)
COc1cc(C=O)c(OCc2ccn(C)c(=O)c2)cn1 [Compound 54, 2-methoxy-5-((1-methyl-2-oxo-1,2-dihydropyridin-4-yl)methoxy)isonicotinaldehyde] | ++ (a delta p50% of between 30 and 50) | 
COc1cc(C=O)c(OCc2nc3ccccn3c2Br)cn1 [Compound 55, 5-((3-bromoimidazo[1,2-a]pyridin-2-yl)methoxy)-2-methoxyisonicotinaldehyde] | + (a delta p50% of between 0 and 29) | 
Cc1ccc(OCc2ccc3ccccc3n2)c(C=O)n1 [Compound 94, 6-methyl-3-(quinolin-2-ylmethoxy)picolinaldehyde] |  | + (a delta p50% of between 0 and 29)
O=Cc1cnccc1OCc1cccnc1 [Compound 1, 4-(pyridin-3-ylmethoxy)nicotinaldehyde] |  | + (a delta p50% of between 0 and 29)
COc1cc(C=O)c(OCc2cn3cc(C(F)(F)F)ccc3n2)cn1 [Compound 52, 2-methoxy-5-((6-(trifluoromethyl)imidazo[1,2-a]pyridin-2-yl)methoxy)isonicotinaldehyde] | + (a delta p50% of between 0 and 29) | 
COc1cc(C=O)c(OCc2cncc(-c3cn[nH]c3)c2)cn1 [Compound 76, 5-((5-(1H-pyrazol-4-yl)pyridin-3-yl)methoxy)-2-methoxyisonicotinaldehyde] |  | + (a delta p50% of between 0 and 29)
COc1cc(C=O)c(OCc2cn3cc(Br)ccc3n2)cn1 [Compound 56, 5-((6-bromoimidazo[1,2-a]pyridin-2-yl)methoxy)-2-methoxyisonicotinaldehyde] | + (a delta p50% of between 0 and 29) | 
COc1cc(C(O)OC)c(OCc2cccc3nccn23)cn1 (stereo not shown) [Compound 50, (5-(imidazo[1,2-a]pyridin-5-ylmethoxy)-2-methoxypyridin-4-yl)(methoxy)methanol] |  | + (a delta p50% of between 0 and 29)
COc1cc(C=O)c(OCc2ccncc2C)cn1 [Compound 47, 2-methoxy-5-((3-methylpyridin-4-yl)methoxy)isonicotinaldehyde] |  | + (a delta p50% of between 0 and 29)
COc1cc(C=O)c(OCc2cncc(-c3ccn(C)n3)c2)cn1 [Compound 75, 2-methoxy-5-((5-(1-methyl-1H-pyrazol-3-yl)pyridin-3-yl)methoxy)isonicotinaldehyde] |  | + (a delta p50% of between 0 and 29)
COc1cc(C=O)c(OCc2cccnc2)cn1 [Compound 42, 2-methoxy-5-(pyridin-3-ylmethoxy)isonicotinaldehyde] |  | + (a delta p50% of between 0 and 29)
COc1cc(C=O)c(NC(=O)c2cccn3ccnc23)cn1 [Compound 112, N-(4-formyl-6-methoxypyridin-3-yl)imidazo[1,2-a]pyridine-8-carboxamide] |  | + (a delta p50% of between 0 and 29)
COc1cc(C=O)c(OCc2cc(C(N)=O)cn3ccnc23)cn1 [Compound 100, 8-((4-formyl-6-methoxypyridin-3-yloxy)methyl)imidazo[1,2-a]pyridine-6-carboxamide] |  | + (a delta p50% of between 0 and 29)
COc1cc(C=O)c(OCc2ccc3[nH]ncc3c2)cn1 [Compound 107, 5-((1H-indazol-5-yl)methoxy)-2-methoxyisonicotinaldehyde] |  | + (a delta p50% of between 0 and 29)
COC(=O)c1cncc(COc2cnc(OC)cc2C=O)c1 [Compound 78, methyl 5-((4-formyl-6-methoxypyridin-3-yloxy)methyl)nicotinate] |  | + (a delta p50% of between 0 and 29)
COc1cc(C=O)c(OCc2ccncc2Br)cn1 [Compound 48, 5-((3-bromopyridin-4-yl)methoxy)-2-methoxyisonicotinaldehyde] | ++ (a delta p50% of between 30 and 50) | 
O=Cc1cccnc1OCc1cccn2ccnc12 [Compound 3, 2-(imidazo[1,2-a]pyridin-8-ylmethoxy)nicotinaldehyde] |  | + (a delta p50% of between 0 and 29)

Structure (SMILES) | delta p50% (compound at 100 μM) | delta p50% (compound at 30 μM)
COc1cc(C=O)c(OCc2cccnc2-c2c(C)cnn2C)cn1 [Compound 142, 5-((2-(1,4-dimethyl-1H-pyrazol-5-yl)pyridin-3-yl)methoxy)-2-methoxyisonicotinaldehyde] |  | + (a delta p50% of between 0 and 29)
COc1cc(C=O)c(OCc2cncc(C#N)c2)cn1 [Compound 98, 5-((4-formyl-6-methoxypyridin-3-yloxy)methyl)nicotinonitrile] |  | + (a delta p50% of between 0 and 29)
COc1cc(C=O)c(OCc2c(-c3cc[nH]n3)ccn3cncc23)cn1 [Compound 123, 5-((7-(1H-pyrazol-3-yl)imidazo[1,5-a]pyridin-8-yl)methoxy)-2-methoxyisonicotinaldehyde] |  | + (a delta p50% of between 0 and 29)
COc1cc(C=O)c(OCc2cc(C#N)cn3ccnc23)cn1 [Compound 97, 8-((4-formyl-6-methoxypyridin-3-yloxy)methyl)imidazo[1,2-a]pyridine-6-carbonitrile] |  | + (a delta p50% of between 0 and 29)
COc1cc(C=O)c(OCc2cccc3cnn(C)c23)cn1 [Compound 90, 2-methoxy-5-((1-methyl-1H-indazol-7-yl)methoxy)isonicotinaldehyde] |  | + (a delta p50% of between 0 and 29)
COc1cc(C=O)c(OCc2cc(-c3nn[nH]n3)cn3ccnc23)cn1 [Compound 125, 5-((6-(2H-tetrazol-5-yl)imidazo[1,2-a]pyridin-8-yl)methoxy)-2-methoxyisonicotinaldehyde] |  | + (a delta p50% of between 0 and 29)
Cc1ccc(OCc2cccnc2-n2cccn2)c(C=O)n1 [Compound 135, 3-((2-(1H-pyrazol-1-yl)pyridin-3-yl)methoxy)-6-methylpicolinaldehyde] |  | + (a delta p50% of between 0 and 29)
O=Cc1ncccc1OCc1cccn2ccnc12 [Compound 4, 3-(imidazo[1,2-a]pyridin-8-ylmethoxy)picolinaldehyde] |  | + (a delta p50% of between 0 and 29)
COc1cc(C=O)c(OCc2ccnc3c2c(C)nn3C)cn1 [Compound 114, 5-((1,3-dimethyl-1H-pyrazolo[3,4-b]pyridin-4-yl)methoxy)-2-methoxyisonicotinaldehyde] |  | + (a delta p50% of between 0 and 29)
COc1cc(C=O)c(OCc2cccnc2-c2cnn(C)c2)cn1 [Compound 127, 2-methoxy-5-((2-(1-methyl-1H-pyrazol-4-yl)pyridin-3-yl)methoxy)isonicotinaldehyde] |  | + (a delta p50% of between 0 and 29)
COc1cc(C=O)c(OCc2cncc(-c3nn[nH]n3)c2)cn1 [Compound 124, 5-((5-(2H-tetrazol-5-yl)pyridin-3-yl)methoxy)-2-methoxyisonicotinaldehyde] |  | + (a delta p50% of between 0 and 29)
COc1cc(C=O)c(OCc2cnccc2-c2ccn[nH]2)cn1 [Compound 71, 5-((4-(1H-pyrazol-5-yl)pyridin-3-yl)methoxy)-2-methoxyisonicotinaldehyde] |  | + (a delta p50% of between 0 and 29)
COc1cc(C=O)c(OCc2nc3ccccn3c2-c2ccn[nH]2)cn1 [Compound 59, 5-((3-(1H-pyrazol-5-yl)imidazo[1,2-a]pyridin-2-yl)methoxy)-2-methoxyisonicotinaldehyde] |  | + (a delta p50% of between 0 and 29)
Cc1ccc(OCc2cccnc2)c(C=O)n1 [Compound 136, 6-methyl-3-(pyridin-3-ylmethoxy)picolinaldehyde] |  | + (a delta p50% of between 0 and 29)
COc1cc(C=O)c(OCc2ccc(C)nc2)cn1 [Compound 41, 2-methoxy-5-((6-methylpyridin-3-yl)methoxy)isonicotinaldehyde] |  | + (a delta p50% of between 0 and 29)
COc1ccc(OCc2ccc3cnn(C)c3c2)c(C=O)n1 [Compound 89, 6-methoxy-3-((1-methyl-1H-indazol-6-yl)methoxy)picolinaldehyde] |  | + (a delta p50% of between 0 and 29)
Cc1ccc(OCc2cnc3c(cnn3C)c2)c(C=O)n1 [Compound 121, 6-methyl-3-((1-methyl-1H-pyrazolo[3,4-b]pyridin-5-yl)methoxy)picolinaldehyde] |  | + (a delta p50% of between 0 and 29)
